Inconclusive results are not listed. Activity calls are given as the source filed them.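 The calls were made as follows: active = valid dose-response fit whose half-maximal growth-inhibiting concentration is at or below a set limit above the top tested dose; inconclusive = flat fit with effect between 30 and 70%, or poor fit; inactive = half-maximal concentration above a set limit.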

One assay can be described thus: antibacterial activity against Clostridioides difficile – 10-point retest, dose response (AID 1259246). The following applies: Clostridioides difficile clinical isolate growth, OD600, 24 h; at 60 µM (top of the series).
For `CCCNC(=O)C[C@@H]1CC[C@H]2[C@H](COc3ccc(NC(=O)c4cccc(Cl)c4)cc3C(=O)N2C)O1`, the activity change, negative = inhibition is 10.3% (inactive).
On the same count and under the same terms, to `CO[C@@H]1CN(C)C(=O)c2ccc(NC(=O)c3ccc(-c4ccccc4)cc3)cc2OC[C@@H](C)NC[C@H]1C` belongs 25.2% (inactive); to `C[C@H]1CCCCO[C@H](CN(C)Cc2ccccc2)[C@@H](C)CN([C@@H](C)CO)C(=O)c2cc(NC(=O)Nc3ccc(C(F)(F)F)cc3)ccc2O1`, 3.08% (inactive).
Still for that read-out and setting: the figure for `C[C@@H]1CN([C@H](C)CO)S(=O)(=O)c2ccc(/C=C/c3ccccc3)cc2O[C@H]1CN(C)Cc1ccccc1` is 2.59% (inactive).
The same measure, in the same setting: the figure for `C[C@H](CO)N1C[C@H](C)[C@@H](CN(C)S(=O)(=O)c2ccc(Cl)cc2)Oc2c(NC(=O)Nc3ccc(C(F)(F)F)cc3)cccc2C1=O` is 25% (inactive).
`Cc1noc(C)c1S(=O)(=O)Nc1ccc2c(c1)C(=O)N([C@@H](C)CO)C[C@H](C)[C@@H](CN(C)Cc1ccc3c(c1)OCO3)OCCCC[C@@H](C)O2`: the activity change, negative = inhibition is 3.17% (inactive).
Same read-out and setting: to `COc1ccccc1C#Cc1ccc([C@H]2[C@@H](C#N)N(C(=O)C3CCCCC3)[C@H]2CO)cc1` belongs 5.31% (inactive).

The same assay, now with this note: Clostridioides difficile clinical isolate growth, OD600, 24 h; at 120 µM (top of the series).
As to `C[C@H]1CCCCO[C@H](CN(C)S(=O)(=O)c2ccc(F)cc2)[C@@H](C)CN([C@@H](C)CO)C(=O)c2cc(NC(=O)Nc3cccc4ccccc34)ccc2O1`, the activity change, negative = inhibition was 21.6% (inactive).
Still for that read-out and setting: to `C[C@H](CO)N1C[C@H](C)[C@@H](CN(C)S(=O)(=O)c2ccc(F)cc2)OCCCC[C@H](C)Oc2ccc(NC(=O)Nc3cccc4ccccc34)cc2C1=O` belongs 16.3% (inactive).
On the same count and under the same terms, to `C[C@@H]1CN([C@H](C)CO)C(=O)Cc2cc(NC(=O)CCCN(C)C)ccc2O[C@@H]1CN(C)Cc1ccc(Oc2ccccc2)cc1` belongs 22.2% (inactive); to `C[C@H](CO)N1C[C@H](C)[C@@H](CN(C)C(=O)NC2CCCCC2)Oc2c(NC(=O)Nc3cccc4ccccc34)cccc2C1=O`, 23.7% (inactive).
On the same count and under the same terms, the figure for `CO[C@H]1CN(C)C(=O)c2cc(NC(=O)c3ccc(Oc4ccccc4)cc3)ccc2OC[C@H](C)NC[C@H]1C` is 31.6% (inactive).
For `O=C(N[C@H]1CC[C@H](CCNS(=O)(=O)c2ccc(Cl)cc2)O[C@H]1CO)c1ccccn1`, the activity change, negative = inhibition is -10.3% (inactive).
In the case of `C[C@@H]1CN([C@@H](C)CO)C(=O)c2cccc(NC(=O)Nc3ccc(C(F)(F)F)cc3)c2O[C@H]1CN(C)C(=O)NC1CCCCC1`, the activity change, negative = inhibition is 15.3% (inactive).
Same read-out and setting: the figure for `CO[C@H]1CN(C)C(=O)c2ccc(NC(=O)c3ccc(-c4ccccc4)cc3)cc2OC[C@@H](C)NC[C@H]1C` is 31.5% (inactive); for `C[C@@H]1CN([C@H](C)CO)C(=O)c2cc(NC(=O)Nc3cccc4ccccc34)ccc2O[C@@H](C)CCCCO[C@H]1CN(C)S(=O)(=O)c1ccccc1` it is 9.12% (inactive); for `C[C@H](CO)N1C[C@H](C)[C@H](CN(C)Cc2ccc(Oc3ccccc3)cc2)Oc2c(NC(=O)Nc3ccccc3)cccc2C1=O` it is 10.9% (inactive).
The same measure, in the same setting: the figure for `O=C(N[C@H]1CC[C@H](CCNS(=O)(=O)Cc2ccccc2)O[C@H]1CO)c1cnccn1` is -2.56% (inactive); for `C[C@H](CO)N1C[C@H](C)[C@@H](CN(C)Cc2cccnc2)Oc2cc(Br)ccc2S1(=O)=O` it is -1.18% (inactive); for `COc1ccc(CN2C[C@@H](C)[C@H](OC)CN(C)C(=O)c3ccc(NC(=O)c4nc5ccccc5s4)cc3OC[C@H]2C)cc1` it is 22.7% (inactive).
As to `C[C@H]1CCCCO[C@@H](CN(C)S(=O)(=O)c2ccc(F)cc2)[C@@H](C)CN([C@@H](C)CO)C(=O)c2cc(NC(=O)Nc3cccc4ccccc34)ccc2O1`, the activity change, negative = inhibition was 42.1% (inactive).
The same measure, in the same setting: to `C[C@H](CO)N1C[C@H](C)[C@@H](CN(C)C(=O)c2ccccc2)OCCCC[C@H](C)Oc2ccc(NC(=O)Nc3cccc4ccccc34)cc2C1=O` belongs 37.5% (inactive).
With `C[C@H](CO)N1C[C@H](C)[C@@H](CN(C)Cc2ccncc2)Oc2cc(-c3ccccc3)ccc2S1(=O)=O`, the activity change, negative = inhibition was 21.1% (inactive).
The same measure, in the same setting: to `C[C@@H]1CN([C@@H](C)CO)S(=O)(=O)c2ccc(/C=C/c3ccccc3)cc2O[C@H]1CN(C)C(=O)c1ccncc1` belongs 14.4% (inactive).
The same measure, in the same setting: the figure for `C[C@@H]1CN([C@H](C)CO)S(=O)(=O)c2ccc(C#CC3CCCC3)cc2O[C@H]1CN(C)Cc1cncnc1` is 38.8% (inactive).
Take `CNC[C@H]1Oc2cc(Br)ccc2S(=O)(=O)N([C@H](C)CO)C[C@@H]1C`: the activity change, negative = inhibition is 6.99% (inactive).
Same read-out and setting: the figure for `C[C@@H]1CN([C@H](C)CO)C(=O)c2cc(NC(=O)Nc3ccc(F)cc3)ccc2O[C@@H](C)CCCCO[C@H]1CN(C)C(=O)c1ccccc1` is 41% (inactive).
Same read-out and setting: to `CC(C)CC#Cc1ccc2c(c1)O[C@@H](CN(C)CC1CCOCC1)[C@H](C)CN([C@@H](C)CO)S2(=O)=O` belongs 13.6% (inactive).
As for `C[C@@H]1CN([C@H](C)CO)C(=O)Cc2cc(NC(=O)C3CCCCC3)ccc2O[C@@H]1CN(C)Cc1ccc(-c2ccccc2)cc1`, the activity change, negative = inhibition is 25.3% (inactive).
Still for that read-out and setting: to `C[C@H](CO)N1C[C@H](C)[C@@H](CN(C)Cc2ccc(Oc3ccccc3)cc2)Oc2ccc(NC(=O)C3CC3)cc2CC1=O` belongs 33.9% (inactive); to `COc1ccc(NC(=O)Nc2cccc3c2O[C@@H](CN(C)C(=O)NC2CCCCC2)[C@H](C)CN([C@H](C)CO)C3=O)cc1`, 1.64% (inactive).
For `C[C@H](CO)N1C[C@H](C)[C@@H](CN(C)S(=O)(=O)c2ccc(Cl)cc2)Oc2c(NC(=O)Nc3ccc(C(F)(F)F)cc3)cccc2C1=O`, the activity change, negative = inhibition is 61.8% (inactive).
For `CNC[C@@H]1Oc2cc(-c3ccc(C)cc3)ccc2S(=O)(=O)N([C@@H](C)CO)C[C@H]1C`, the activity change, negative = inhibition is 10.7% (inactive).
On the same count and under the same terms, the figure for `COc1ccc(NC(=O)Nc2cccc3c2O[C@H](CN(C)C(=O)NC2CCCCC2)[C@@H](C)CN([C@H](C)CO)C3=O)cc1` is -0.118% (inactive).
On the same count and under the same terms, to `C[C@@H]1CN([C@@H](C)CO)C(=O)Cc2cc(NC(=O)C3CCCCC3)ccc2O[C@@H]1CN(C)Cc1ccc(-c2ccccc2)cc1` belongs 19% (inactive); to `C[C@@H]1CN([C@H](C)CO)C(=O)c2cc(NC(=O)Nc3cccc4ccccc34)ccc2O[C@@H](C)CCCCO[C@H]1CN(C)S(C)(=O)=O`, 1.6% (inactive); to `CC(C)CC#Cc1ccc2c(c1)O[C@@H](CN(C)Cc1ccc3c(c1)OCO3)[C@@H](C)CN([C@H](C)CO)S2(=O)=O`, 23.6% (inactive).
On the same count and under the same terms, the figure for `C[C@@H]1CN([C@@H](C)CO)C(=O)Cc2cc(N(C)C)ccc2O[C@@H]1CN(C)Cc1ccc(Oc2ccccc2)cc1` is 12.4% (inactive); for `O=C(O)C[C@H]1C[C@@H]2c3cc(NC(=O)NC4CCCC4)ccc3O[C@@H]2[C@@H](CO)O1` it is 2.6% (inactive).
As to `CC(C)CC#Cc1ccc2c(c1)O[C@H](CN(C)Cc1ccc3c(c1)OCO3)[C@H](C)CN([C@@H](C)CO)S2(=O)=O`, the activity change, negative = inhibition was 26.5% (inactive).
The same measure, in the same setting: the figure for `N#C[C@H]1[C@@H](c2ccc(C#CC3CCCCC3)cc2)[C@@H](CO)N1C(=O)Cc1ccccn1` is 40.2% (inactive); for `C[C@@H]1CCCCO[C@H](CN(C)S(=O)(=O)c2ccc(F)cc2)[C@H](C)CN([C@H](C)CO)C(=O)c2cc(NC(=O)Nc3cccc4ccccc34)ccc2O1` it is 23.1% (inactive).
On the same count and under the same terms, the figure for `C[C@H](CO)N1C[C@H](C)[C@@H](CN(C)C(=O)NC2CCCCC2)Oc2c(NC(=O)Nc3ccccc3)cccc2C1=O` is 12.2% (inactive); for `CC(C)NC(=O)Nc1ccc2c(c1)CC(=O)N([C@@H](C)CO)C[C@@H](C)[C@@H](CN(C)Cc1ccc(-c3ccccc3)cc1)O2` it is 25% (inactive).

Staying with this assay, now noted: Clostridioides difficile clinical isolate growth, OD600, 24 h; at 135 µM (top of the series).
Turning to `C[C@@H]1CN([C@@H](C)CO)C(=O)Cc2cc(NS(C)(=O)=O)ccc2O[C@@H]1CN(C)Cc1ccc(-c2ccccc2)cc1`, the activity change, negative = inhibition was 16.9% (inactive).
For `C[C@@H]1CN([C@H](C)CO)C(=O)c2cc(NC(=O)Nc3ccc4c(c3)OCO4)ccc2O[C@H]1CN(C)Cc1ccccc1`, the activity change, negative = inhibition is -5.34% (inactive).
The same measure, in the same setting: the figure for `O=C(C[C@H]1C[C@H]2c3cc(NC(=O)Nc4ccccc4)ccc3O[C@H]2[C@@H](CO)O1)NC1CCCC1` is 11% (inactive); for `COc1ccccc1CNC(=O)C[C@H]1C[C@@H]2c3cc(NC(=O)NC4CCCC4)ccc3O[C@@H]2[C@H](CO)O1` it is 4.13% (inactive).
On to `O=S(=O)(Cc1ccccc1)NCC[C@H]1CC[C@H](NS(=O)(=O)c2ccc(F)cc2)[C@H](CO)O1`, for which the activity change, negative = inhibition is -6.92% (inactive).
On the same count and under the same terms, the figure for `C[C@@H]1CN([C@@H](C)CO)C(=O)Cc2cc(NC(=O)CCC(F)(F)F)ccc2O[C@H]1CN(C)Cc1ccc(Oc2ccccc2)cc1` is 8.79% (inactive).
As for `COc1ccc(NC(=O)N(C)C[C@@H]2Oc3ccc(NC(=O)CCCN(C)C)cc3CC(=O)N([C@H](C)CO)C[C@H]2C)cc1`, the activity change, negative = inhibition was 1.15% (inactive).
`C[C@H]1CN([C@@H](C)CO)C(=O)c2cccc(NC(=O)Nc3ccc4c(c3)OCO4)c2O[C@H]1CN(C)Cc1ccc(-c2ccccc2)cc1`: the activity change, negative = inhibition is 24.8% (inactive).
The same measure, in the same setting: to `C[C@@H]1CN([C@@H](C)CO)C(=O)Cc2cc(NC(=O)CCCN(C)C)ccc2O[C@H]1CN(C)S(C)(=O)=O` belongs -4.68% (inactive); to `Cc1ccc(S(=O)(=O)N(C)C[C@H]2Oc3ccc(NS(C)(=O)=O)cc3C(=O)N([C@@H](C)CO)C[C@H]2C)cc1`, 9.46% (inactive).
Same read-out and setting: to `O=C(N[C@H]1CC[C@H](CCNS(=O)(=O)Cc2ccccc2)O[C@H]1CO)c1ccc2c(c1)OCO2` belongs -7.24% (inactive).

The values are drawn from PubChem BioAssay AID1259246 (Broad Institute, 2017).
